According to article PMC7145549, “A general strategy exploiting m^5C duplex-remodelling effect for selective detection of RNA and DNA m^5C methyltransferase activity in cells” (Nucleic Acids Research, 2019):
pIC50: −log10 of the molar value. “Also recorded” adds a separate entry of the source. Where two headings read alike, the source gives them in different places. Blank lines part the entries; values can stand above or below the molecule they belong to.

Tests used:
NSUN2 [1] = target: T1, NSUN2 (Homo sapiens, UniProt Q08J23); test: In vitro m5C-probe fluorescence RNA methyltransferase assay; type: biochemical; design: Full-length human NSUN2 (containing C-terminal MYC/DDK tag; TP314459); MYC/DDK (C); purchased Origene Technologies Inc., USA TP314459; conditions: inhibitor 10 μM, probe 9a 5 μM, NSUN2 0.5 μM
T1 sequence (Q08J23 whole entry): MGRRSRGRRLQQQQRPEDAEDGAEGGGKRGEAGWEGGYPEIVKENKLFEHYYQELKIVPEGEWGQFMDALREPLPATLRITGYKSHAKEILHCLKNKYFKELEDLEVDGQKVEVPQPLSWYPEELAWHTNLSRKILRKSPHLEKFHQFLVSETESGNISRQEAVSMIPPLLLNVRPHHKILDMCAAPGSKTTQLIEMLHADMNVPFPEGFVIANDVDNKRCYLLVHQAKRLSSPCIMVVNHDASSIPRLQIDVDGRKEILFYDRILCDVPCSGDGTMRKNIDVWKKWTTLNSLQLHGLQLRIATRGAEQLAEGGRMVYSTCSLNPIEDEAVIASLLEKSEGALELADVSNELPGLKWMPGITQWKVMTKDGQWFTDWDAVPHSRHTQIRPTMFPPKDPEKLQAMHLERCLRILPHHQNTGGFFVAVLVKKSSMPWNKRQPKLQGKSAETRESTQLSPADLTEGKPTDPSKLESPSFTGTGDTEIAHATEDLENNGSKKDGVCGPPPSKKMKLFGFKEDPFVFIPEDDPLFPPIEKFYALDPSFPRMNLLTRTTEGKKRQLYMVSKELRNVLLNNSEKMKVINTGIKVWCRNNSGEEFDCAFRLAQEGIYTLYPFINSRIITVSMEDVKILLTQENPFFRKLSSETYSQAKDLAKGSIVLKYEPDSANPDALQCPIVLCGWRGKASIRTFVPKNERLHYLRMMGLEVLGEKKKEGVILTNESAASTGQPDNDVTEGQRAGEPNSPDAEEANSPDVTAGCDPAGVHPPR
Protocol: (§1) RNA methyltransferase assay: the assay was performed at 37°C in triplicate in a Corning Costar 96-well flat bottom black plate. Reaction consisted of enzyme (0.5 μM), methyl donor S-adenosyl-L-methionine (SAM; 200 μM), m^5C-probe 9a (substrate; 5 μM) or locked-probe 10a (control; 5 μM) in a 50 mM HEPES buffer (pH 7.4) containing 150 mM NaCl and 20 mM MgCl2. The final reaction volume is 25 μl. The time course of fluorescence activation was recorded immediately after the addition of enzyme with a Tecan ultra microplate reader (λex 360 nm; λem 465 nm). An average of five scans was recorded. DNA methyltransferase assay: the assay was performed as described above. Reaction consisted of enzyme (NSUN2 or DNMT3A; 0.5 μM), methyl donor S-adenosyl-L-methionine (SAM; 200 μM), DNA m^5C-probe 11a (substrate; 5 μM) in a 50 mM HEPES buffer (pH 7.4) containing 150 mM NaCl and 20 mM MgCl2. The fluorescence of the reaction was monitored at λem 400 nm (λex 340 nm).
We next examined whether m^5C-probe 9a could function as fluorogenic substrate for RNA:m^5C MTase by testing it against NSUN2, which is of particular interest in light of emerging evidence linking NSUN2 with m^5C methylation of human mRNA ([14]) and its association with human cancers ([25–29]). […] The formation of methylated probe was measured by an increase in fluorescence signal at 465 nm (λex 360 nm).

NSUN2 [2] = target: T1, NSUN2; test: Cell-based m5C-probe methyltransferase assay (flow cytometry, probe 9a)
Protocol: The HeLa cells were pre-incubation with various concentrations of non-specific MTase inhibitors, including sinefungin, S-adenosyl-L-homocysteine (SAH), adenosine, and homocysteine at 37°C for 30 min. Nine different concentrations of inhibitors were used (0.1, 0.3, 1, 3, 10, 50, 100, 250, 1000 μM) and the final DMSO concentration was kept at less than 1% (v/v) of the assay mix. […] This was followed by the delivery of either the m^5C-probe 9a (10 μM) or control probe 10a (10 μM) into the cells via Lipofectamine 2000. Aliquots were then collected for flow cytometry measurements (λex 355 nm; λem 425–475 nm) at the indicated time points. The mean fluorescence intensity of at least 20 000 live cells was determined. IC50 determination: the IC50 values were then calculated from the variation in fluorescence at different inhibitor concentrations using nonlinear regression, with normalised dose-response fit on GraphPad Prism 6.0™. The assay was performed in triplicate for each inhibitor concentration. Z’ factor determination: the Z’ factor for our m^5C-probe assay was calculated using previously described method ([55]). For details, see Supplementary Data. […]
Cell-based m5C-probe methyltransferase assay
The HeLa cells were pre-incubation with various concentrations of DNA/RNA MTase inhibitors, including sinefungin, S-adenosyl-L-homocysteine (SAH), adenosine, and homocysteine at 37 °C for […]
and the final DMSO concentration was kept at less than 1% v/v of the assay mix. These concentrations […]
by the delivery of either the m5C-probe 9a (10 μM) or control probe 10a (10 μM) into the cells via Lipofectamine 2000, as described above. Aliquots were then collected for flow cytometry measurements (λex 355 nm; λem 425-475 nm) at the indicated time points. The mean fluorescence intensity of at least 20,000 live cells was determined.
For IC50 determination: the IC50 value were then calculated from the variation in fluorescence at different inhibitor concentrations using nonlinear regression, with normalised dose-response fit on GraphPad Prism 6.0™. The assay was performed in triplicate for each inhibitor concentration.
For the determination of Z’ factor: the Z’ factor for our m5C-probe assay was calculated using the method described by Zhang et al.17 A total of 40 independent assays were run with either sinefungin (1 mM; positive control) or DMSO (1% v/v; negative control). The Z’ factor was then calculated using […]
Where µp and µn are the means of the positive (p) and negative (n) controls σp and σn are the standard deviations of the positive (p) and negative (n) controls.

DNMT3A = target: T2, DNMT3A (Homo sapiens, UniProt Q9Y6K1); test: In vitro DNMT3A inhibition assay with DNA m5C-probe 11a; type: biochemical; conditions: probe 11a 5 μM, DNMT3A 0.5 μM, 30 min; read-out: IC50 against DNMT3A
T2 construct: Full-length human DNMT3A protein containing N-terminal His-DDDDK tag was purchased from; His-DDDDK (N); purchased abcam plc; UK ab170408
T2 sequence (Q9Y6K1 whole entry, looked up): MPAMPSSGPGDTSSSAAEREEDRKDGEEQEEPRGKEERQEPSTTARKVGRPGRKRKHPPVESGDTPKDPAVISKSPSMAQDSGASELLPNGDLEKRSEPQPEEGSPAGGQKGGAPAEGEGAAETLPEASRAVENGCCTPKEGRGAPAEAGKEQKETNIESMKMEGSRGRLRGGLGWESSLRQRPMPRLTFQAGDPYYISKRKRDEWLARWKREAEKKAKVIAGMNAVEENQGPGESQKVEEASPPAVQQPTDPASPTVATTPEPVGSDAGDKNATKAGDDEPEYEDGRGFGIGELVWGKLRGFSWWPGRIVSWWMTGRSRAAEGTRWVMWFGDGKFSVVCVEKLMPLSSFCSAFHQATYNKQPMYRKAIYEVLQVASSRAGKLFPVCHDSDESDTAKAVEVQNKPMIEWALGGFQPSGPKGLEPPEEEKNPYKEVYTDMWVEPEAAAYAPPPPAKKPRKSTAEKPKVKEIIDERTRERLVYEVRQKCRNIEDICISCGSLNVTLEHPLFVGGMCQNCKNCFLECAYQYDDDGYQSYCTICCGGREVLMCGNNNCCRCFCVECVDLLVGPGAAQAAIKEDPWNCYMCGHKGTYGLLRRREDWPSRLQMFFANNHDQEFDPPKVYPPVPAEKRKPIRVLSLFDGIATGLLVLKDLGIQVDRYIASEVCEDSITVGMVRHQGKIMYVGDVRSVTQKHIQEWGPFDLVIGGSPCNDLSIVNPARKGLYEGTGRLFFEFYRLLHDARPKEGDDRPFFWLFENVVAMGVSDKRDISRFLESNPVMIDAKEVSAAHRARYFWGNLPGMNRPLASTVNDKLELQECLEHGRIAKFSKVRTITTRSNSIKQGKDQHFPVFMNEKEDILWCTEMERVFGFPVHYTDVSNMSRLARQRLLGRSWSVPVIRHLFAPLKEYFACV
Protocol: as §1
Importantly, m^5C-probe 11a may also be applied to the inhibition study of DNMT3A. […] Work is currently underway to explore the possibility of employing both probes concurrently for the simultaneous detection of RNA and DNA m^5C MTase activity.

[3] = UV-based thermal denaturation / thermodynamic analysis; type: physicochemical; conditions: for increase in duplex stability on m5C methylation (ΔΔG°310): methylated vs unmethylated duplex
Protocol: UV-based thermal denaturation experiments
The melting of each duplex (1a, 1b, 7a, 7b, 11a and 11b) was performed on a Cary 300 UV-Visible Spectrophotometer (Varian) at a total strand concentration of 5 μM (unless otherwise stated) in 10 mM sodium phosphate buffer (pH 7.4), 150 mM NaCl and 20 mM MgCl2. Absorbance versus temperature profiles were recorded at 260 nm. The samples were first denatured by heating to 95 °C at 10 °C/min, followed by slow cooling to 25 °C at 0.4 °C/min to ensure a complete annealing of the strands. The melting transitions were then monitored by heating to 95 °C at 0.4 °C/min. To increase the accuracy of measurements, the sixth position was used to record the temperature data points by placing a temperature probe directly in the cuvette. Each oligo was measured at seven different concentrations (1, 2, 5, 10, 15, 20 and 30 μM), and a total of six independent melting transitions were measured for each concentration. The Tm values were determined by the Varian Cary Software using the baseline (alpha) method, which is defined as the point when the mole fraction of duplex was equal to 0.5. The melting transitions were generally found to be reproducible for all oligos studied.

[4] = free fluorophore; cited from earlier work
[5] = CD conformational analysis at a range of MgCl2 concentrations; type: physicochemical; conditions: 25°C, pH 7.4, 150 mM NaCl, MgCl2 0-300 mM
Protocol: Circular dichroism (CD) spectroscopy
The CD spectra for the duplexes were obtained using a JASCO J-810 spectropolarimeter, as previously described.4 Measurements were carried out at 25 °C with 5 μM probes in a 10 mM sodium phosphate buffer (pH 7.4) containing 150 mM NaCl, and varying MgCl2 concentrations (0, 5, 10, 20, 100, and 300 mM). The concentrations were determined by UV absorbance at 260 nm (A260) using a NanoDrop ND-1000 UV-Visible Spectrophotometer. The oligo solutions were first heated to 90 °C for 5 min, and re-annealed by slow cooling to 4 °C at a rate of 1 °C/min. CD spectra were then recorded in quartz cuvettes (path length 1 mm, 400 μL) from 220 nm to 330 nm at 25 °C using a 10 nm/min scan speed, a spectral band width of 1 nm and a time constant of 4 s. All the spectra were subtracted with the buffer blank and smoothed using the Savitsky-Golay algorithm (polynomial order 10). […]

[6] = Fluorescence emission and quantum yield analysis of probes; type: physicochemical; conditions: in MeOH, reference standard, authors' conditions
Protocol: Fluorescence analysis was performed using a Cary Eclipse fluorescence spectrophotometer, as previously reported with modifications ([36]). The fluorescence emission spectra (λem = 400–600 nm) of the probes were recorded in a quartz cuvette at 37°C, at a total stand concentration 5 μM in a buffer of 10 mM sodium phosphate buffer (pH 7.4) containing 150 mM NaCl and 20 mM MgCl2. An average of five scans was recorded. Background fluorescence spectra were acquired after the probe has been incubated for 30 min at 37°C. For determination of fluorescence quantum yields of the m^5C-probes, see Supplementary Data.
The fluorescence quantum yields (ΦF) of pyrene (Py)-labelled DNA probes 11a-c were determined as previously described.7,11 UV absorption of the probes λex 340 nm was measured on a Cary-300 UV-Visible spectrophotometer (Varian Inc.) from 0.1 to 0.03 absorbance units in 0.01 increments. The fluorescence emission spectra were immediately measured afterwards in a Cary Eclipse (Varian Inc.) fluorescent spectrophotometer with an excitation wavelength of 340 nm. Pyrenebutanoic acid (PBA) in methanol was used as a reference, and was calculated using the equation below. The reported quantum yields are an average of three measurements within ±10%. […]
ΦF(PBA) is the cross-calibrated value for the fluorescence quantum emission yield of pyrenebutanoic acid (PBA) in MeOH. […]

[7] = pH 7.4, 150 mM NaCl, 20 mM MgCl2
[8] = HeLa cells, 30 min pre-incubation with inhibitor, probe 9a 10 μM, flow cytometry, read-out: IC50 against NSUN2

Molecule: Nc1ncnc2c1ncn2[C@@H]1O[C@H](C[C@@H](N)CC[C@H](N)C(=O)O)[C@@H](O)[C@H]1O [sinefungin]
effect of inhibitor on probe 9a fluorescence activation by NSUN2 (NSUN2 [1]): reduces significantly; also recorded: significant reduction in fluorescence intensity
pIC50 (NSUN2 [2]): 5.05
pIC50 (DNMT3A): 6.15

increase in duplex stability on m5C methylation (ΔΔG°310) [3, 7]: ~0.8 kcal/mol
Molecule: r(CG-C-GCG)2 [1a]

pIC50 (NSUN2 [2]; [8]): < 3.40
Molecule: NC(CCS)C(=O)O (centres unmarked) [homocysteine]

pIC50 (NSUN2 [2]; [8]): < 3.70
pIC50 (DNMT3A): 3.97
Molecule: Nc1ncnc2c1ncn2[C@@H]1O[C@H](CO)[C@@H](O)[C@H]1O [adenosine]

Molecule: O=c1nc2[nH]c(-c3ccccc3)cc2c[nH]1 [^pC, 6-phenylpyrrolocytosine]
quantum yield (ΦF) [4]: 0.31

free energy of B-to-Z transition (ΔΔG°T) ([3]; ΔG°310 of 7b (20 mM MgCl2) vs 7b* (no MgCl2)): ~1.5 kcal/mol
midpoint MgCl2 concentration for B-Z transition [5]: ~ 10 mM
Molecule: d(CG-m^5C-GCG)2 [7b]

duplex stabilisation by m5C (ΔΔG°310 per m5C) ([3]; absence of MgCl2): 0.5 kcal/mol per m5C
increase in melting temperature (Tm) per m5C ([3]; absence of MgCl2): 1.7 °C per m5C
ΔΔH° 7a→7b [3, 7]: 7.3 kcal/mol
ΔΔS° 7a→7b [3, 7]: 31.6 cal/mol/K
increase in duplex stability on m5C methylation (ΔΔG°310) [3, 7]: 2.5 kcal/mol
Molecule: d(CG-C-GCG)2 [7a]

fluorescence quantum yield [6]: 0.061
Molecule: O=C(O)CCCc1ccc2ccc3cccc4ccc1c2c34 [PBA, Pyrenebutanoic acid]

pIC50 (NSUN2 [2]; [8]): 5.51
Molecule: Nc1ncnc2c1ncn2[C@@H]1O[C@H](CSCC[C@H](N)C(=O)O)[C@@H](O)[C@H]1O [SAH, S-adenosyl-L-homocysteine]
